From patent publication US8110703B2, “Retinoid derivative and pharmaceutical composition and use thereof” (Anhui Medical University, priority 2008, dated 2012)

Key:
Format in all cases: cell-based
[1] = tested on: A549 lung cancer cells; experiment: MTT cell growth and proliferation experiment, A549; design: key to Inhibition Rate: (control OD570 − test OD570)/control OD570, as fraction; conditions: 3 d; for OD Value (x ± s): A549, MTT OD 570 nm; for Inhibition Rate: A549, MTT, given as fraction
Experimental: (§1) 1.1 Reagents 12 retinoic acid derivatives with the final concentrations of 1 ug/ml, 5 ug/ml and 10 ug/ml are synthesized by the Pharmaceutical College of Anhui Medical University using DMSO and anhydrous ethanol, separately packaged for storage at −20° C. and kept out of the light when used, and the final concentration of DMSO is less than 0.1%. MTT is purchased from Sigma Corp. The Coulter DNA detection kit is presented by the Central Lab of Anhui Provincial Hospital. AFP and γ-GT are provided by the Clinical Lab of No. 105 Hospital of PLA. Apoptosis-Hoechst staining kit is purchased from Beyotime Company.
(§2) 1.2 Cell Culture A549, and HpeG2 cells are stored by our lab. Cell growth condition: DMEM (from GIBICO Company) culture solution is added with 10% of calf serum (purchased from the Hangzhou Sijiqing Biological Engineering Material Co., Ltd.) to culture in a cell culture incubator (37° C., 5% CO2) with saturated humidity.
(§3) 1.3 Cell Growth and Proliferation Experiments MTT process is used. Cells in the logarithmic phase are picked and seeded on a 96-hole culture board with a cell concentration of 5×10^7/L. Each hole of the board is 200 ul. The next day after the adherence, the original solution is discarded, and the culture solution is added. The cells are divided into 1 ug/ml retinoic acid derivative groups, 5 ug/ml retinoic acid derivative groups, 10 ug/ml retinoic acid derivative groups, blank control groups, cell control groups, solvent control groups (1‰ DMSO and anhydrous ethanol) (17 in total) according to the concentrations thereof, incubated for 3d, added with MTT (5 g/L) of 20 ul/hole for incubation at 37° C. for 4 h. The original solution is carefully discarded and dried, and DMSO of 20 ul/hole is added to dissolve crystals, followed by vibrating for 10 min and determining the OD value at 570 nm. Each concentration is corresponding to 5 holes, and each group calculates the average of 3 experiments to calculate the inhibition rate to the cell growth according to the optical density (OD) average of each hole in each group and the following equation: inhibition rate %=(control hole OD570−experimental hole OD570)/control hole OD5700*100%. The process above is repeated for three times. The second experiment takes the maximum concentration (10 […]) for culture respectively for 1, 2, 3 and 7 days and repeat for three times.

[2] = tested on: liver cancer HepG2 cells; experiment: MTT cell growth and proliferation experiment, HepG2; design: key to Inhibition Rate: (control OD570 − test OD570)/control OD570, as fraction; conditions: 3 d; for OD Value (x ± s): HepG2, MTT OD 570 nm; for Inhibition Rate: HepG2, MTT, fraction
Experimental: as §1, §2, §3

[3] = tested on: K562 cells; experiment: Cell cycle analysis by flow cytometer, K562; design: S %: dose or concentration left out as unconfirmed; conditions: 72 h
Experimental: (§4) Retinoic acid derivatives and fenretinide are prepared as a storage solution of 10 mg/mL by anhydrous ethanol and stored at […] and kept out of light.
(§5) NB4 cells and K562 cells are inoculated with an initial concentration of 2*10^5/ml in the RPMI1640 culture solution having 10% of calf serum (FBS), 100 u/ml of penicillin, 100 Lg/ml of streptomycin and 2 mmol/L of glutamine for suspension culture (37° C., 5% CO2). Change the solution every 2-3 days.
(§6) For the cells above acted by the retinoic acid derivatives and fenretinide ([…]) for 72 h, about 10^6 of them are collected, washed by PBS twice, fixed by 70% of cold ethanol over 24 h, washed by PBS twice, added with 5 ug/ml of propidium iodide for staining and detected by a flow cytometer from which the data are analyzed and processed by the multi-cycle software.

[4] = tested on: NB4 cells; experiment: Cell cycle analysis by flow cytometer, NB4; design: S %: dose or concentration left out as unconfirmed; conditions: 72 h
Experimental: as §4, §5, §6

Structure (SMILES) | OD Value (x ± s) ([1]; 1 ug/ml, solvent ethanol) | OD Value (x ± s) ([1]; 5 ug/ml, solvent ethanol) | OD Value (x ± s) ([1]; 10 ug/ml, solvent ethanol) | Inhibition Rate ([1]; 1 ug/ml, solvent ethanol) | Inhibition Rate ([1]; 5 ug/ml, solvent ethanol) | Inhibition Rate ([1]; 10 ug/ml, solvent ethanol) | OD Value (x ± s) ([2]; 1 ug/ml, solvent ethanol) | OD Value (x ± s) ([2]; 5 ug/ml, solvent ethanol) | OD Value (x ± s) ([2]; 10 ug/ml, solvent ethanol) | Inhibition Rate ([2]; 1 ug/ml, solvent ethanol) | Inhibition Rate ([2]; 5 ug/ml, solvent ethanol) | Inhibition Rate ([2]; 10 ug/ml, solvent ethanol) | G1 % [3] | G2 % [3] | S % [3] | G1 % [4] | G2 % [4] | S % [4] | OD Value (x ± s) ([1]; 1 ug/ml, solvent DMSO (D)) | OD Value (x ± s) ([1]; 5 ug/ml, solvent DMSO (D)) | also measured
CC1=C(/C=C/C(C)=C/C=C/C(C)=C/C(=O)Oc2ccc(C(F)(F)F)cc2)C(C)(C)CCC1 [Example 2a-01, (4-trifluoromethylphenyl)-(all-trans)-3,7-dimethyl-9-(2,6,6-trimethyl-1-cyclohexen-1-yl)-2,4,6,8-nonatetraenoate] | 1.878 ± 0.158 | 1.487 ± 0.175 | 1.458 ± 0.066 | −0.006 | 0.203 | 0.219 | 1.38 ± 0.56 | 1.31 ± 0.57 | 1.30 ± 0.55 | 0.18 | 0.23 | 0.24 | 36.1% | 12.5% | 51.4% |  |  |  |  |  | 
CC1=C(/C=C/C(C)=C/C=C/C(C)=C/C(=O)Oc2ccc(OC(F)(F)F)cc2)C(C)(C)CCC1 [Example 5a-01, (4-trifluoromethoxyphenyl)-(all-trans)-3,7-dimethyl-9-(2,6,6-trimethyl-1-cyclohexen-1-yl)-2,4,6,8-nonatetraenoate] | 1.962 ± 0.225 | 1.754 ± 0.138 | 1.732 ± 0.317 | −0.051 | 0.060 | 0.072 | 1.57 ± 0.39 | 1.51 ± 0.30 | 1.49 ± 0.23 | 0.07 | 0.11 | 0.12 | 32.6% | 12.5% | 55.0% | 59.28% | 4.98% | 35.74% |  |  | 
CC1=C(/C=C/C(C)=C/C=C/C(C)=C/C(=O)Oc2ccc(N)c(C(F)(F)F)c2)C(C)(C)CCC1 [Example 4a-01, (4-amino-3-trifluoromethylphenyl)-(all-trans)-3,7-dimethyl-9-(2,6,6-trimethyl-1-cyclohexen-1-yl)-2,4,6,8-nonatetraenoate] |  |  |  |  |  |  |  |  |  |  |  |  | 39.1% | 6.9% | 53.9% | 59.15% | 7.07% | 33.78% |  |  | OD Value (x ± s) ([2]; 1 ug/ml, solvent not given): 1.72 ± 0.44; OD Value (x ± s) ([2]; 5 ug/ml, solvent not given): 1.63 ± 0.36; OD Value (x ± s) ([2]; 10 ug/ml, solvent not given): 1.57 ± 0.30; Inhibition Rate ([2]; 1 ug/ml, solvent not given): −0.009; Inhibition Rate ([2]; 5 ug/ml, solvent not given): 0.04; Inhibition Rate ([2]; 10 ug/ml, solvent not given): 0.07
CC1=C(/C=C/C(C)=C/C=C/C(C)=C/C(=O)Oc2cccc(C(F)(F)F)c2)C(C)(C)CCC1 [Example 2a-02, (3-trifluoromethylphenyl)-(all-trans)-3,7-dimethyl-9-(2,6,6-trimethyl-1-cyclohexen-1-yl)-2,4,6,8-nonatetraenoate] |  |  |  |  |  |  | 1.19 ± 0.52 | 1.13 ± 0.46 | 0.94 ± 0.49 | 0.29 | 0.33 | 0.45 | 35.4% | 9.9% | 54.6% |  |  |  | 1.735 ± 0.048 | 1.621 ± 0.070 | OD Value (x ± s) ([1]; 10 ug/ml, solvent DMSO (D)): 1.580 ± 0.207; Inhibition Rate ([1]; 1 ug/ml, solvent DMSO (D)): 0.070; Inhibition Rate ([1]; 5 ug/ml, solvent DMSO (D)): 0.131; Inhibition Rate ([1]; 10 ug/ml, solvent DMSO (D)): 0.144
CC1=C(/C=C/C(C)=C/C=C/C(C)=C/C(=O)Oc2cccc(OC(F)(F)F)c2)C(C)(C)CCC1 [Example 5a-02, (3-trifluoromethoxyphenyl)-(all-trans)-3,7-dimethyl-9-(2,6,6-trimethyl-1-cyclohexen-1-yl)-2,4,6,8-nonatetraenoate] |  |  |  |  |  |  | 1.27 ± 0.44 | 1.13 ± 0.47 | 1.11 ± 0.61 | 0.25 | 0.33 | 0.35 | 38.2% | 7.7% | 54.2% | 60.06% | 4.91% | 35.03% | 1.843 ± 0.179 | 1.817 ± 0.142 | OD Value (x ± s) ([1]; 10 ug/ml, solvent DMSO (D)): 1.689 ± 0.154; Inhibition Rate ([1]; 1 ug/ml, solvent DMSO (D)): 0.012; Inhibition Rate ([1]; 5 ug/ml, solvent DMSO (D)): 0.027; Inhibition Rate ([1]; 10 ug/ml, solvent DMSO (D)): 0.095
